What was measured:
[1] = system: patients with advanced solid tumors; type: in vivo, human
[2] = Paclitaxel plasma pharmacokinetics; type: in vivo, human; details: paclitaxel 60 mg/m^2; with daily oral TAK-659
[3] = system: CYP3A4; details: overlapping elimination mechanisms; cited from earlier work
[4] = TAK-659 plasma pharmacokinetics; type: in vivo, human; details: for AUC0-t increase from day 1 to day 15 / clearance decrease from day 1 to day 15: with paclitaxel
[5] = system: patients with acute myeloid leukemia (AML); details: TAK-659 monotherapy, doses of up to 160 mg daily; cited from earlier work

Structure (SMILES) | patients with paclitaxel dose reduced ([1]; Nine of 49 patients, given with TAK-659) [%] | increase in exposure (AUC), cycle 1 day 15 compared with cycle 1 day 1 [2] [%] | reduction in clearance, cycle 1 day 15 compared with cycle 1 day 1 [2] [%] | substrate for CYP3A4, a major drug metabolizing enzyme [3] | patients with dose of TAK-659 reduced ([1]; Six of 49 patients, given with paclitaxel) [%] | recommended phase II dose of TAK-659 ([1]; oral, combined with paclitaxel) [mg daily] | patients who needed a second dose reduction of TAK-659 ([1]; two of 49 patients, given with paclitaxel) [%] | increase in terminal elimination half-life from day 1 to day 15 ([4]; 60-mg dosing cohort, not statistically significant (P = 0.1650)) [%] | AUC0-t increase from day 1 to day 15 ([4]; 60-mg dosing group) [%] | clearance decrease from day 1 to day 15 ([4]; 60-mg dosing group) [%] | AUC0-t increase from day 1 to day 15 ([4]; 80-mg dosing group) [%] | clearance decrease from day 1 to day 15 ([4]; 80-mg dosing group) [%] | AUC0-t increase from day 1 to day 15 ([4]; 100-mg dosing group) [%] | clearance decrease from day 1 to day 15 ([4]; 100-mg dosing group) [%] | MTD [5]
CC(=O)O[C@H]1C(=O)[C@@]2(C)[C@H]([C@H](OC(=O)c3ccccc3)[C@]3(O)C[C@H](OC(=O)[C@H](O)[C@@H](NC(=O)c4ccccc4)c4ccccc4)C(C)=C1C3(C)C)[C@]1(OC(C)=O)CO[C@@H]1C[C@@H]2O [Paclitaxel, paclitaxel, reference compound] | 18 | ~28 | ~20 | substrates | – | – | – | – | – | – | – | – | – | – | –
Cn1cc(-c2nc(N[C@@H]3CCCC[C@@H]3N)c(F)c3c2C(=O)NC3)cn1 [TAK-659, mivavotinib] | – | – | – | substrates | 12 | 80 | 4 | 41 | 40 | 36 | 66 | 31 | 91 | 46 | not reached

— PMC11258623 (ESMO Open, 2024)
